“Also recorded” adds a separate entry of the source.
Tests used:
Format in all cases: in vivo
Male Swiss mice [1] = assay: Dizocilpine-induced learning deficits: spontaneous alternation in the Y-maze
Method: (§1) The activity of compound 3.1.10 was evaluated on the prevention of the dizocilpine-induced learning deficits measured using two behavioral tests. The present experiment tested if its anti-amnesic activity could be blocked by pretreatment with the reference sigma-1 receptor antagonist NE-100.
(§2) • Sixty (60) mice were used. Behavioral testing started one week after the arrival of the animals in the AMYLGEN animal facility. • 5 treatment groups were designed and used as follows:
(§3) • Vehicle 1 was physiological saline for dizocilpine, DMSO 2% in water for compound 3.1.10 • Animals were used at day 1 in the Y-maze test and at days 2 and 3 in the passive avoidance test, with training at day 2 and retention at day 3. • Test compounds, compound 3.1.10 and/or NE-100 were administered 10 min before dizocilpine (at 0.15 mg/kg i.p.) or vehicle. • Dizocilpine or vehicle 1 was administered 20 min before the Y-maze test session on day 1. • Dizocilpine or vehicle 1 was administered 20 min before the passive avoidance training session on day 2. Drugs were not injected before the retention session on day 3. • The whole experiment program was performed in a single serie experiment. • Treatments were randomized. 2.1.2. Animals
Male Swiss mice, 6 weeks old and weighing 30-35 g, from JANVIER (Saint Berthevin, France), were housed in groups with access to food and water ad libitum, except during experiments. They were kept in a temperature and humidity controlled animal facility on a 12 h/12 h light:dark cycle (lights on at 7:00 am). […]
Animals were tested for spontaneous alternation performance in the Y-maze, an index of spatial working memory. […] The number of maximum alternations was therefore the total number of arm entries minus two and the percentage of alternation was calculated as: (actual alternations/maximum alternations)×100. […]
All values, except passive avoidance latencies, were expressed as mean±S.E.M. Statistical analyses were performed using two-way ANOVA (F value), with genotype and peptide treatment as independent factors, followed by a Dunn's post-hoc multiple comparison test.

Male Swiss mice [2] = assay: Dizocilpine-induced learning deficits: step-through passive avoidance test
Method: as §1, §2, §3
Male Swiss mice, 6 weeks old and weighing 30-35 g, from JANVIER (Saint Berthevin, France), were housed in groups with access to food and water ad libitum, except during experiments. […]
The apparatus is a two-compartments (15×20×15 cm high) box with one illuminated with white polyvinylchloride walls and the other darkened with black polyvinylchloride walls and a grid floor. […] The step-through latency (the latency spent to enter the dark compartment) and the number of vocalizations was recorded. […] The step-through latency was recorded up to 300 s. When the mouse entered the dark compartment or 300 s has elapsed (they were therefore manually placed in it), the escape latency (latency to exit from the dark compartment) was recorded up to 300 s.
They were therefore analyzed using a Kruskal-Wallis non-parametric ANOVA (H value), followed by a Dunn's multiple comparison test.

SJL/J mice = assay: EAE model, preventive treatment; settings: single i.p. injection on day 0, 0.5 or 1 mg/kg; FIG. 3
Excerpt: Animals. SJL/J mice were purchased from Janvier (Le Genest-St-Isle, France) and bred under conventional barrier protection at the Pasteur Institute (Lille, France). All experiment protocols and procedures were in compliance with the European Communities Council Directives of 24 Nov. 1986 (86/609/EEC) and were approved by the local ethical committee (CEEA 102009R). Efforts were made to minimize the number of animals used and their suffering. Animals that reached severe hind limb paresis (clinical grade 3) were isolated, and hydration and food access were facilitated.
EAE induction and treatment. The method of EAE induction was similar to previously published methods (Lee-Chang et al., Immunol Lett. 2011 Mar. 30; 135(1-2):108-17). […]
Body weight and clinical signs of EAE were monitored daily. The severity of clinical symptoms was scored based on a standard neurological scoring system for EAE, as follows: grade 0, no disease; grade 1, moderate tail hypotonia and/or slight clumsy gait; grade 2, tail atony and/or clumsy gait; grade 3, severe hind limb paresis; grade 4, paraplegia; grade 5, tetraplegia. […]

[3] = 0.5 mg/kg i.p., 10 min before dizocilpine 0.15 mg/kg i.p.
[4] = 3.1.10 0.5 mg/kg + NE-100 3 mg/kg + dizocilpine 0.15 mg/kg i.p.

CN(CCCNC(=O)c1ccc(Cl)cc1)Cc1ccccc1 [Compound 3.1.10, N-[3-(benzylmethylamino)propyl]-4-chlorobenzamide]
dizocilpine-induced learning deficits, Y-maze test (Male Swiss mice [1]; [3]): significantly attenuated
beneficial effect of compound 3.1.10 with NE-100, Y-maze test (Male Swiss mice [1]; [4]): prevented by treatment with the sigma-1 antagonist NE-100
dizocilpine-induced learning deficits, passive avoidance test (Male Swiss mice [2]; [3]): significantly attenuated
beneficial effect of compound 3.1.10 with NE-100, passive avoidance test (Male Swiss mice [2]; [4]): prevented by treatment with the sigma-1 antagonist NE-100
EAE clinical course, preventive treatment (SJL/J mice): Amelioration of EAE; also recorded: delaying the onset of EAE

— US10179761B2, “Compounds, pharmaceutical composition and their use in treating neurodegenerative diseases” (UNIVERSITE DE LILLE 2 DROIT ET SANTE, priority 2014, dated 2019)
